Experimental data reported in patent US9428456B2, “1-[m-carboxamido(hetero)aryl-methyl]-heterocyclyl-carboxamide derivatives” (Actelion Pharmaceuticals Ltd., priority 2012, dated 2016).

Molecular target: CXCR7 (Homo sapiens (Human), UniProt P25106)
Experiment: PathHunter CHO-K1 CXCR7 b-arrestin assay (agonistic activity)
Format: cell-based
Details: PathHunter CHO-K1 CXCR7 b-arrestin cell line
Method in brief: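 CHO-K1 cells co-expressing ProLink-tagged CXCR7 and EA-fused β-arrestin 2 (enzyme fragment complementation); compounds added in HBSS/20 mM HEPES/0.2% BSA after 3–4 h in OPTIMEM, 90 min at 37 °C. Chemiluminescent β-gal signal read after 1 h detection at room temperature; EC50 reported as geometric mean of several measurements.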

Sequence of CXCR7 (P25106 whole entry): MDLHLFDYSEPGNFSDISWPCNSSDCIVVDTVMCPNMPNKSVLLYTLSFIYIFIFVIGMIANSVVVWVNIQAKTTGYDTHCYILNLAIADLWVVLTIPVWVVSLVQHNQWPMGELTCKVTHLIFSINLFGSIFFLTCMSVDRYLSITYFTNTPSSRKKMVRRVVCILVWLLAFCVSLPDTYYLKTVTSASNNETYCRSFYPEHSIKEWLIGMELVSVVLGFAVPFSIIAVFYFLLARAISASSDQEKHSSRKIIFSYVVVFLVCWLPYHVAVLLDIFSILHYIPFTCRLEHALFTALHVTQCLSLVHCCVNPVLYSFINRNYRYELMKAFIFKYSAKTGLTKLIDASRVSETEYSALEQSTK
Sequence of CXCR7 (P32121 whole entry partner): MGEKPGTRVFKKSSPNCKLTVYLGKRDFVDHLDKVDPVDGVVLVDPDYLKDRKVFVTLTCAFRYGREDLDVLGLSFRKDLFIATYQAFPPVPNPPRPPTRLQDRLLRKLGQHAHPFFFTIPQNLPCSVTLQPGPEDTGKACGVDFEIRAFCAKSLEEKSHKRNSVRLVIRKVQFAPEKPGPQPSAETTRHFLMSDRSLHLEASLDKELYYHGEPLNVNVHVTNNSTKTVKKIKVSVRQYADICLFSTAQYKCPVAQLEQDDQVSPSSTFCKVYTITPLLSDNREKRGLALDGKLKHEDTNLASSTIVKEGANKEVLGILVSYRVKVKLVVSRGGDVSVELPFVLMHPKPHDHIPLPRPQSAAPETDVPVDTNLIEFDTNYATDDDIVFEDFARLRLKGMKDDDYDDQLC

| Compound | EC50 |
| --- | --- |
| O=C(Nc1ccc(Cl)c(CN2CCC(C(=O)NC3CCCC3)CC2)c1)c1ccc2ncccc2c1 [Example 1.221] | 1 nM |
| O=C(Nc1ccc(Cl)c(CN2CCC(C(=O)NC3CCCC3)CC2)c1)c1cnc2ccccc2c1 [Example 1.222] | 3 nM |
| CC(C)(C)NC(=O)C1CCN(Cc2cccc(NC(=O)c3ccc(F)cc3)c2)CC1 [Example 1.223] | 0.5 nM |
| O=C(Nc1ccc(Cl)c(CN2CCC(C(=O)NC3CCCC3)CC2)c1)c1ccc(F)cn1 [Example 1.224] | 0.4 nM |
| O=C(Nc1ccc(Cl)c(CN2CCC(C(=O)NC3CCCC3)CC2)c1)c1cncc(C(F)(F)F)c1 [Example 1.225] | 0.8 nM |
| Cc1cncc(C(=O)Nc2ccc(Cl)c(CN3CCC(C(=O)NC4CCCC4)CC3)c2)c1 [Example 1.226] | 2 nM |
| CC(C)(C)NC(=O)C1CCN(Cc2cccc(NC(=O)c3cccc(C(F)(F)F)n3)c2)CC1 [Example 1.228] | 1 nM |
| CC(C)(C)NC(=O)C1CCN(Cc2cccc(NC(=O)c3ccc(C(F)(F)F)cn3)c2)CC1 [Example 1.229] | 0.5 nM |
| CC(C)(C)NC(=O)C1CCN(Cc2cccc(NC(=O)c3cncc(C(F)(F)F)c3)c2)CC1 [Example 1.230] | 1 nM |
| CC(C)(C)NC(=O)C1CCN(Cc2cccc(NC(=O)c3cccnc3C(F)(F)F)c2)CC1 [Example 1.231] | 99 nM |
| CC(C)(C)NC(=O)C1CCN(Cc2cccc(NC(=O)c3cnc4ccccc4n3)c2)CC1 [Example 1.232] | 3 nM |
| CC(C)(C)NC(=O)C1CCN(Cc2cccc(NC(=O)c3cnc4ccccc4c3)c2)CC1 [Example 1.233] | 2 nM |
| CC(C)(C)NC(=O)C1CCN(Cc2cccc(NC(=O)c3ccc4cnccc4n3)c2)CC1 [Example 1.234] | 2 nM |
| CC(C)(C)NC(=O)C1CCN(Cc2cccc(NC(=O)c3ccc4ccccc4n3)c2)CC1 [Example 1.235] | 0.9 nM |
| CC(C)(C)NC(=O)C1CCN(Cc2cccc(NC(=O)c3cnc4cc(Cl)ccc4c3)c2)CC1 [Example 1.236] | 5 nM |
| CC(C)(C)NC(=O)C1CCN(Cc2cccc(NC(=O)c3cccc(C(F)(F)F)c3)c2)CC1 [Example 1.237] | 4 nM |
| CC(C)(C)NC(=O)C1CCN(Cc2cccc(NC(=O)c3ccc(C(F)(F)F)cc3)c2)CC1 [Example 1.238] | 4 nM |
| CC(C)(C)NC(=O)C1CCN(Cc2cccc(NC(=O)c3ccccc3C(F)(F)F)c2)CC1 [Example 1.239] | 17 nM |
| CC(C)(C)NC(=O)C1CCN(Cc2cccc(NC(=O)c3cncc(C4CC4)c3)c2)CC1 [Example 1.240] | 3 nM |
| CCc1cncc(C(=O)Nc2cccc(CN3CCC(C(=O)NC(C)(C)C)CC3)c2)c1 [Example 1.241] | 4 nM |
| CC(C)(C)NC(=O)C1CCN(Cc2cccc(NC(=O)c3cc(C(F)(F)F)ccn3)c2)CC1 [Example 1.242] | 6 nM |
| CC(C)(C)NC(=O)C1CCN(Cc2cccc(NC(=O)Cc3ccc(Cl)cc3Cl)c2)CC1 [Example 1.244] | 5 nM |
| CC(C)(C)NC(=O)C1CCN(Cc2cccc(NC(=O)Cc3c(Cl)cccc3Cl)c2)CC1 [Example 1.245] | 1 nM |
| CC(C)(C)NC(=O)C1CCN(Cc2cccc(NC(=O)Cc3cccc(Cl)c3Cl)c2)CC1 [Example 1.246] | 3 nM |
| CC(C)(C)NC(=O)C1CCN(Cc2cccc(NC(=O)Cc3c(F)cccc3Cl)c2)CC1 [Example 1.247] | 2 nM |
| CC(C)(C)NC(=O)C1CCN(Cc2cccc(NC(=O)Cc3ccc(F)cc3Cl)c2)CC1 [Example 1.248] | 2 nM |
| CC(C)(C)NC(=O)C1CCN(Cc2cccc(NC(=O)Cc3cccc(C(F)(F)F)c3Cl)c2)CC1 [Example 1.249] | 2 nM |
| CC(C)(C)NC(=O)C1CCN(Cc2cccc(NC(=O)Cc3c(Cl)ccc(C(F)(F)F)c3Cl)c2)CC1 [Example 1.250] | 3 nM |

| Compound | EC50 |
| --- | --- |
| CC(C)(C)NC(=O)C1CCN(Cc2cccc(NC(=O)Cc3c(C(F)(F)F)ccc(Cl)c3Cl)c2)CC1 [Example 1.251] | 3 nM |
| CC(C)(C)NC(=O)C1CCN(Cc2cccc(NC(=O)Cc3cc(F)c(Cl)cc3Cl)c2)CC1 [Example 1.252] | 4 nM |
| CC(C)(C)NC(=O)C1CCN(Cc2cccc(NC(=O)Cc3c(F)ccc(Cl)c3Cl)c2)CC1 [Example 1.253] | 4 nM |
| CC(C)(C)NC(=O)C1CCN(Cc2cccc(NC(=O)Cc3c(F)ccc(F)c3Cl)c2)CC1 [Example 1.254] | 2 nM |
| CC(C)(C)NC(=O)C1CCN(Cc2cccc(NC(=O)CC3CCOCC3)c2)CC1 [Example 1.255] | 137 nM |
| CC(C)(C)NC(=O)C1CCN(Cc2cccc(NC(=O)Cc3ccccc3Cl)c2)CC1 [Example 1.258] | 1 nM |
| CC(C)(C)NC(=O)C1CCN(Cc2cccc(NC(=O)Cc3ccccc3)c2)CC1 [Example 1.259] | 4 nM |
| CC(C)(C)NC(=O)C1CCN(Cc2cccc(NC(=O)C3C(C)(C)C3(C)C)c2)CC1 [Example 1.260] | 0.9 nM |
| Cc1nc(CC(=O)Nc2cccc(CN3CCC(C(=O)NC(C)(C)C)CC3)c2)c(C)s1 [Example 1.261] | 2 nM |
| Cc1nc(C)c(CC(=O)Nc2cccc(CN3CCC(C(=O)NC(C)(C)C)CC3)c2)s1 [Example 1.262] | 120 nM |
| CC(C)(C)NC(=O)C1CCN(Cc2cccc(NC(=O)Cc3cnccn3)c2)CC1 [Example 1.263] | 143 nM |
| CC(C)(C)NC(=O)C1CCN(Cc2cccc(NC(=O)Cc3ncccn3)c2)CC1 [Example 1.264] | 90 nM |
| CC(C)(C)NC(=O)C1CCN(Cc2cccc(NC(=O)C3(c4ccc(Cl)cc4Cl)CC3)c2)CC1 [Example 1.268] | 2 nM |
| CC(C)(C)NC(=O)C1CCN(Cc2cccc(NC(=O)CC3Cc4ccccc4C3)c2)CC1 [Example 1.272] | 2 nM |
| CC(C)CN(C)C(=O)C1CCN(Cc2cccc(NC(=O)c3ccc(F)cc3)c2)CC1 [Example 1.273] | 2 nM |
| CC(C)CN(C)C(=O)C1CCN(Cc2cccc(NC(=O)c3cccc(C(F)(F)F)n3)c2)CC1 [Example 1.274] | 9 nM |
| CC(C)CN(C)C(=O)C1CCN(Cc2cccc(NC(=O)c3ccc(C(F)(F)F)cn3)c2)CC1 [Example 1.275] | 3 nM |
| CC(C)CN(C)C(=O)C1CCN(Cc2cccc(NC(=O)c3cncc(C(F)(F)F)c3)c2)CC1 [Example 1.276] | 6 nM |
| CC(C)CN(C)C(=O)C1CCN(Cc2cccc(NC(=O)c3cncc(F)c3)c2)CC1 [Example 1.277] | 18 nM |
| CC(C)CN(C)C(=O)C1CCN(Cc2cccc(NC(=O)c3cncc(Cl)c3)c2)CC1 [Example 1.278] | 6 nM |
| CC(C)(C)NC(=O)C1CCN(Cc2cc(Br)cc(NC(=O)c3cccc(C(F)(F)F)n3)c2)CC1 [Example 1.279] | 420 nM |
| COc1cc(CN2CCC(C(=O)NC(C)(C)C)CC2)cc(NC(=O)c2ccc(F)cc2)c1 [Example 1.280] | 409 nM |
| Cc1ccc(C(=O)Nc2cccc(CN3CCC(C(=O)NC4CCCCC4)CC3)c2)s1 [Example 1.281] | 3 nM |
| O=C(Nc1cccc(CN2CCC(C(=O)NC3CCCCC3)CC2)c1)c1ccc(Cl)s1 [Example 1.282] | 5 nM |
| CC(C)(C)c1ccc(C(=O)Nc2cccc(CN3CCC(C(=O)NC4CCCCC4)CC3)c2)s1 [Example 1.283] | 34 nM |
| O=C(Nc1ccnc(CN2CCC(C(=O)NC3CCCCC3)CC2)n1)c1cccc(C(F)(F)F)n1 [Example 1.284] | 223 nM |
| Cc1cncc(C(=O)Nc2ccnc(CN3CCC(C(=O)NC4CCCCC4)CC3)n2)c1 [Example 1.285] | 199 nM |
